According to the NIST ThermoML archive (doi:10.1016/j.tca.2004.07.014):

What was measured:
[1] = xn = mol fraction of the nth substance listed; conditions: 303.15 K, 101.3 kPa, Liquid; for speed of sound: Linear variable-path acoustic interferometer
[2] = 303.15 K, 101.3 kPa, Liquid; for viscosity: Capillary tube (Ostwald / Ubbelohde) method; for speed of sound: Linear variable-path acoustic interferometer

CCOC(=O)CC(=O)OCC [diethyl 1,3-propanedioate] + ClC(Cl)(Cl)Cl
[1]
Conditions	mass density [kg/m3]	speed of sound [m/s]	viscosity [mPa·s]
x1 = 0.1173	1480.36	949	0.857
x1 = 0.2031	1419.02	982	0.877
x1 = 0.2999	1356.61	1018	0.918
x1 = 0.4623	1265.6	1080	1.002
x1 = 0.5648	1215.59	1120	1.084
x1 = 0.6579	1174.08	1154	1.167
x1 = 0.7478	1136.91	1185	1.272
x1 = 0.8311	1104.69	1216	1.388
x1 = 0.9189	1072.19	1247	1.544
x1 = 1	1043.23	1274	1.721

CCOC(=O)C(Br)C(=O)OCC [diethyl bromomalonate] + ClC(Cl)Cl
[1]
Conditions	mass density [kg/m3]	speed of sound [m/s]	viscosity [mPa·s]
x1 = 0.098	1460.41	989	0.709
x1 = 0.1971	1450.47	1010	0.941
x1 = 0.296	1441.28	1032	1.2
x1 = 0.4033	1432.36	1054	1.507
x1 = 0.5045	1424.91	1075	1.84
x1 = 0.5919	1419.12	1092	2.141
x1 = 0.6911	1413.32	1112	2.501
x1 = 0.7991	1407.82	1131	2.899
x1 = 0.8997	1403.21	1149	3.253

ClC(Cl)(Cl)Cl [tetrachloromethane] + CCOC(=O)CCl
[1], x2 = 0
Conditions	mass density [kg/m3]	speed of sound [m/s]	viscosity [mPa·s]
–	1574.82	905	0.844

CCOC(=O)CC(=O)OCC [diethyl 1,3-propanedioate] + ClC(Cl)Cl
[1]
Conditions	mass density [kg/m3]	speed of sound [m/s]	viscosity [mPa·s]
x1 = 0.0968	1399.36	999	0.533
x1 = 0.2004	1334.53	1031	0.568
x1 = 0.3089	1276.4	1065	0.622
x1 = 0.4122	1228.62	1097	0.692
x1 = 0.5385	1178.25	1136	0.808
x1 = 0.6125	1151.99	1159	0.891
x1 = 0.7225	1116.7	1192	1.05
x1 = 0.8156	1089.85	1220	1.226
x1 = 0.9071	1065.78	1246	1.444

CCOC(=O)CC(=O)OCC [diethyl 1,3-propanedioate]
[2]
Conditions	mass density [kg/m3]	speed of sound [m/s]	viscosity [mPa·s]
–	1043.23	1274	1.721

ClC(Cl)Cl [trichloromethane]
[2]
Conditions	mass density [kg/m3]	speed of sound [m/s]	viscosity [mPa·s]
–	1470.59	967	0.512

ClC(Cl)Cl [trichloromethane] + CCOC(=O)CCl
[1], x2 = 0
Conditions	mass density [kg/m3]	speed of sound [m/s]	viscosity [mPa·s]
–	1470.59	967	0.512
